Values after ≈ are worked out from the molar mass of the structure shown. Where two headings read alike, the source gives them in different places.
Assays:
M. avium = assay: Rabbit model of M. avium infection; assay type: in vivo; settings: compared to controls
[1] = tested on: Chlamydia pneumoniae strain TW-l 83; assay: Sensitivity testing in cell cultures; assay type: cell-based
Procedure: (§1) Sensitivity testing was conducted in cell cultures against Chlamydia pneumoniae strain TW-l 83 using rifalazil, clanthromycin, or azithromycin. […] The in vivo testing of rifalazil used a mouse model infected with Chlamydia pneumoniae strain AR-39. […] All control animals remained infected.

[2] = tested on: Chlamydia pneumoniae strain AR-39; assay: Mouse model infected with Chlamydia pneumoniae; assay type: in vivo; settings: intraperitoneal 1 mg/kg QID for three days; five days after cessation
Procedure: as §1

[3] = Multiple-dose oral toxicology studies in rats; assay type: in vivo
Procedure: (§2) In chronic studies with dogs and rats, the no-observed-adverse-effect-level was 1000 mg/kg. […] Significant partitioning of drug-related radioactivity to the formed elements of the blood was observed. […] The urine contained a small amount (5.5%) of radioactivity.
(§3) Single-dose and multiple-dose oral toxicology studies were conducted in mice, rats, and dogs. In addition, to maximize systemic exposure, single-dose intravenous (IV) and intraperitoneal (IP) studies were conducted in rats and mice. Four-week and 13-week oral studies in dogs and rats and 26-week oral studies in rats included standard clinical measurements and physical and pathological evaluations.

[4] = Multiple-dose oral toxicology studies in dogs; assay type: in vivo
Procedure: as §2, §3

[5] = human, in vivo
Procedure: The third trial (003) was a randomized, rising, double-blind, multiple-dose, placebo-controlled study where subjects were observed during the 14-consecutive days of drug administration in dosages 0, 5 and 25 mg/day and for an additional 14 days without medication. All subjects received the dose within 30 minutes after eating a standardized breakfast. Subjects were divided into two groups. In Group 1, eight subjects were randomized to a daily 25 mg dose of rifalazil and four subjects were randomized to placebo. Numerous adverse reactions began to appear with the 25 mg dose several days after dosing and it became apparent that 25 mg daily dose was not safe. Consequently, after review of the safety data, the study protocol was amended to proceed with a lower dose of 5 mg in group 2. Group 2 consisted of eight subjects randomized to a daily 5 mg dose of rifalazil and four subjects randomized to placebo.
In the clinical trials 001 and 002 all patients were submitted to laboratory testing where the hematology, serum chemistry and urinanalysis were examined prior to dosing, during dosing and at least 14 days following the cessation of drug administration.
Laboratory testing regimen for 003 and 004 trials was the same as for 001 and 002 trials.
The onset and magnitude of decrease in hematologic parameters appeared to be related to this dose. In order to better visualize the drop and subsequent recovery in these parameters, the data were graphed to synchronize subjects to their last dose.

clinical = settings: human, in vivo
Text: Pharmacokinetic analyses associated with clinical trials involved measurement of concentrations of rifalazil in plasma and/or whole blood of subjects participating in the four Phase 1 studies using high performance liquid chromatography.
Attempts were made to analyze the multiple-dose pharmacokinetics using a linear 3-compartment model, and a 3-compartment model incorporating enzyme induction. However, neither multi-compartmental model accurately characterized the pharmacokinetic parameters in all subjects. Daily dosing and related early terminations due to adverse reactions, differences in bioavailability from a food effect, and nonconnective dose administration further complicated these analyses. Therefore, only noncompartmental pharmacokinetic parameters were derived for clinical trials 003 and 004.

M. intracellulare = settings: 31 strains, agar dilution; cited from earlier work
M. tuberculosis [6] = settings: cited from earlier work
M. tuberculosis [7] = settings: eight weeks treatment; cited from earlier work
[8] = Ref. 1, BACTEC, 30 strains (rif^r and rif^s)
[9] = Ref. 2, BACTEC, 24 strains (rif^r and rif^s)
[10] = Ref. 3, BACTEC, 13 strains (rif^s)
[11] = Ref. 4, BACTEC, 11 strains (rif^r)
[12] = Ref. 5, BACTEC, 20 strains (rif^s)
[13] = thirty clinical isolates, BACTEC

Question: Which results are given for `CO[C@H]1/C=C/O[C@@]2(C)Oc3c(C)c(O)c4c(=O)c(c5oc6cc(N7CCN(CC(C)C)CC7)cc(O)c6nc-5c4c3C2=O)NC(=O)/C(C)=C\C=C\[C@H](C)[C@H](O)[C@@H](C)[C@@H](O)[C@@H](C)[C@H](OC(C)=O)[C@@H]1C` [Rifalazil, 3′-hydroxy-5′-(4-isobutyl-1-piperazinyl)benzoxasinorifamycin]?
Answer: bacterial load on organs (M. avium): reduced the bacterial load on organs compared to controls; fold more potent than clanthromycin [1]: 300 fold; fold more potent than erythromycin [1]: 1500 fold; Chlamydia pneumoniae in the lungs [2]: not detectable; doses with dose-related lymphocytic depletion in the spleens ([3]; 26-week study): > 30 mg/kg/day; no-observed-adverse-effect-level ([3]; chronic studies, rats): 1000 mg/kg; doses at which hematological changes were noted ([3]; multiple-dose oral, rats): > 30 mg/kg; liver weight ([4]; 1,000 mg/kg, four weeks daily dosing): slight increase in liver weight; no observable adverse effect level ([4]; 13-week study, daily oral): 300 mg/kg; no-observed-adverse-effect-level ([4]; chronic studies, dogs): 1000 mg/kg; doses at which hematological changes were noted ([4]; multiple-dose oral, dogs): > 30 mg/kg; WBC counts, level of continuous drop [5]: around 2.0 K/CU MM; nadir of mean WBC after the last dose [5]: 1 to 2 days; time for hematologic parameters to return to normal after the last dose [5]: ≤ 14 days; Half-life distribution t½ (mean) (clinical): 17.26 h; half-life (clinical; Half-life distribution t½ (mean)): 10.1 h; Tmax (clinical; Tmax (mean)): 5.25 h; MIC90 (M. intracellulare): 0.1 µg/mL (≈ 0.106 µM); MIC90 (M. tuberculosis [6]; [8]): 2.0 µg/mL (≈ 2.13 µM); MIC Range (M. tuberculosis [6]; [8]): ≦0.002 to 4.0^ μg/mL; MIC90 (M. tuberculosis [6]; [9]): 4.0 µg/mL (≈ 4.25 µM); MIC Range (M. tuberculosis [6]; [9]): 0.0009 to 4.0 µg/mL; MIC90 (M. tuberculosis [6]; [10]): 0.0156 µg/mL (≈ 0.0166 µM); MIC Range (M. tuberculosis [6]; [10]): 0.0009 to 0.125 µg/mL; MIC90 (M. tuberculosis [6]; [11]): 4.0 µg/mL (≈ 4.25 µM); MIC Range (M. tuberculosis [6]; [11]): 0.062 to 4.0 µg/mL; MIC90 (M. tuberculosis [6]; [12]): <0.125 µg/mL; MIC Range (M. tuberculosis [6]; [12]): <0.125 µg/mL; MIC90 (M. tuberculosis [6]; Ref. 6, BACTEC, 20 strains (rif^r)): >2.0 µg/mL; MIC (M. tuberculosis [6]; reference strain H37Rv, BACTEC): 0.004 µg/mL (≈ 0.00425 µM); MIC (M. tuberculosis [6]; reference strain Kurono, BACTEC): 0.002 µg/mL (≈ 0.00213 µM); MIC90 (M. tuberculosis [6]; rifampin-sensitive Mycobacterium tuberculosis): 0.0156 µg/mL (≈ 0.0166 µM); MIC50 50% inhibition (M. tuberculosis [6]; [13]): 0.016 µg/mL (≈ 0.017 µM); MIC90 90% inhibition (M. tuberculosis [6]; [13]): 2.0 µg/mL (≈ 2.13 µM); gross lung lesions, bacterial loads, survival time versus rifampin (M. tuberculosis [7]): outperformed rifampin in treating the disease
